The data set is described as follows: Dissolution of hydrocortisone in DCM of the coating suspension. The following applies: suspension in PLGA/dichloromethane for SAS coating. Type of data set: physicochemical. The source says:
An exemplary processing protocol according to the present disclosure is as follows. The precipitation chamber is first charged with SC CO2. After the predetermined operating conditions (temperature and pressure) are reached, a steady flow of CO2 is established by adjusting the metering valve and the metering pump. The flow rate of CO2 was usually less than 3.0 standard liters per minute (SLPM). PLGA and hydrocortisone (HC) are then weighed and mixed into dichloromethane (DCM) to produce a suspension with the desired polymer concentration and PLGA to HC ratio. The suspension-so-produced is then injected at a flow rate of 0.8 ml/min into the high pressure chamber through the capillary nozzle by using an HPLC pump (Beckman, 110B) for about 10 minutes. After spraying, fresh CO2 is supplied continuously to purge the chamber with about 1 equivalent volume of CO2 in order to remove any remaining dichloromethane. After purging, the precipitation chamber is slowly depressurized and the coated drug particles collected for characterization.
Initially, reference is made to FIG. 18 wherein SEM images of the untreated hydrocortisone particles employed in the experimental studies are shown. Hydrocortisone is seen to be in crystal form with defined facets and sharp edges. […] The coated particles have a different shape (morphology) and no clear sharp edges when compared with the uncoated drug particles. […]

Regarding `C[C@]12CCC(=O)C=C1CC[C@@H]1[C@@H]2[C@@H](O)C[C@@]2(C)[C@H]1CC[C@]2(O)C(=O)CO` [hydrocortisone, Hydrocortisone], the “hydrocortisone dissolved in DCM, share of the total” value is “about 17%”.

The values are drawn from patent US7537803B2, “Polymer coating/encapsulation of nanoparticles using a supercritical antisolvent process” (New Jersey Institute of Technology, priority 2003, dated 2009).
